Test results: article PMC10363545, “The potential use of glycosyl-transferase inhibitors for targeted reduction of S. mutans biofilms in dental materials” (Scientific Reports, 2023)

What was measured:
GTF-C = target: T1, GTF-C (Streptococcus mutans, UniProt P13470); experiment: dynamic light scattering glucan polymerization assay with recombinant GTF-C at […] sucrose; also pNPG hydrolysis kinetics and gel zymography; type: biochemical
T1 construct: gene gtfC; recombinant GTF-C

GTF-B = target: T2, GTF-B (Streptococcus mutans, UniProt P08987); experiment: pNPG hydrolysis kinetics with recombinant enzyme (Vmax reduced […]); gel zymography at […] ([…] inhibition); type: biochemical
T2 construct: gene gtfB; recombinant GTF-B
T2 sequence (P08987 35-1476): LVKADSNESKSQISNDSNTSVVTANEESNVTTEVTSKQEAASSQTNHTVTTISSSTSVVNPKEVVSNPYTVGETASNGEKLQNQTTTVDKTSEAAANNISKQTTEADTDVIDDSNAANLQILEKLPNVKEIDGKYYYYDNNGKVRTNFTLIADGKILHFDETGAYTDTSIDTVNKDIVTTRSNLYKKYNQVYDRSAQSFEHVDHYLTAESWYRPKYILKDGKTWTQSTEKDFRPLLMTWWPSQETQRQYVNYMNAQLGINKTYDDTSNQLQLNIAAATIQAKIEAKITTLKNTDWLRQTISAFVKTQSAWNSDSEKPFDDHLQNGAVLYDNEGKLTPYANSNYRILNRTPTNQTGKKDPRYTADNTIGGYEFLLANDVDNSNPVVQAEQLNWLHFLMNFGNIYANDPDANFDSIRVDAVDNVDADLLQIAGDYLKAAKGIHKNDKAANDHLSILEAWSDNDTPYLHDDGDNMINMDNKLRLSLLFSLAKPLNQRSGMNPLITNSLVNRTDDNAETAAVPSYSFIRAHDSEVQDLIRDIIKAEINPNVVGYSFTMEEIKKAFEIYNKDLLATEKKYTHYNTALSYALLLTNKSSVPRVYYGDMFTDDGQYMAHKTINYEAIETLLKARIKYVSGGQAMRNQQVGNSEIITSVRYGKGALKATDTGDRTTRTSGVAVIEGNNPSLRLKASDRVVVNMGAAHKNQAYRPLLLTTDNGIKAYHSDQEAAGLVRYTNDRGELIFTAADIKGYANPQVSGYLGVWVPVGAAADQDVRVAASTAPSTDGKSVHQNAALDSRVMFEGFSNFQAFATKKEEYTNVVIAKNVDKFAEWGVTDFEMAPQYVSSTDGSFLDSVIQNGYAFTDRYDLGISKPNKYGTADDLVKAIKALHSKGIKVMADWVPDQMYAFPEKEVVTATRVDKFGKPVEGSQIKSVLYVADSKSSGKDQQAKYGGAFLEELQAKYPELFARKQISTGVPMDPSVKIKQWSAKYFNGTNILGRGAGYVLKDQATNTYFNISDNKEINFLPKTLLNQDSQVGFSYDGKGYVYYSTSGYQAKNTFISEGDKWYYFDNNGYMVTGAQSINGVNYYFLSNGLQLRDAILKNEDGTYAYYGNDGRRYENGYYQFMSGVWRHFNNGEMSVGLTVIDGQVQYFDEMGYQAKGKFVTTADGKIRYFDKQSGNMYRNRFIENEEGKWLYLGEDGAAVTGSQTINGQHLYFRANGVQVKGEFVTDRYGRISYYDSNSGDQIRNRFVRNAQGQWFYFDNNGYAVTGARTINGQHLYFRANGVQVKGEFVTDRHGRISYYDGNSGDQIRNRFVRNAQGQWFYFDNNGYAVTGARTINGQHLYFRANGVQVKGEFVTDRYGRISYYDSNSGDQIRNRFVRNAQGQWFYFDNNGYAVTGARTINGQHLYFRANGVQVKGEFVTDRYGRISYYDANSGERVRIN

T1 sequence (P13470 35-1455): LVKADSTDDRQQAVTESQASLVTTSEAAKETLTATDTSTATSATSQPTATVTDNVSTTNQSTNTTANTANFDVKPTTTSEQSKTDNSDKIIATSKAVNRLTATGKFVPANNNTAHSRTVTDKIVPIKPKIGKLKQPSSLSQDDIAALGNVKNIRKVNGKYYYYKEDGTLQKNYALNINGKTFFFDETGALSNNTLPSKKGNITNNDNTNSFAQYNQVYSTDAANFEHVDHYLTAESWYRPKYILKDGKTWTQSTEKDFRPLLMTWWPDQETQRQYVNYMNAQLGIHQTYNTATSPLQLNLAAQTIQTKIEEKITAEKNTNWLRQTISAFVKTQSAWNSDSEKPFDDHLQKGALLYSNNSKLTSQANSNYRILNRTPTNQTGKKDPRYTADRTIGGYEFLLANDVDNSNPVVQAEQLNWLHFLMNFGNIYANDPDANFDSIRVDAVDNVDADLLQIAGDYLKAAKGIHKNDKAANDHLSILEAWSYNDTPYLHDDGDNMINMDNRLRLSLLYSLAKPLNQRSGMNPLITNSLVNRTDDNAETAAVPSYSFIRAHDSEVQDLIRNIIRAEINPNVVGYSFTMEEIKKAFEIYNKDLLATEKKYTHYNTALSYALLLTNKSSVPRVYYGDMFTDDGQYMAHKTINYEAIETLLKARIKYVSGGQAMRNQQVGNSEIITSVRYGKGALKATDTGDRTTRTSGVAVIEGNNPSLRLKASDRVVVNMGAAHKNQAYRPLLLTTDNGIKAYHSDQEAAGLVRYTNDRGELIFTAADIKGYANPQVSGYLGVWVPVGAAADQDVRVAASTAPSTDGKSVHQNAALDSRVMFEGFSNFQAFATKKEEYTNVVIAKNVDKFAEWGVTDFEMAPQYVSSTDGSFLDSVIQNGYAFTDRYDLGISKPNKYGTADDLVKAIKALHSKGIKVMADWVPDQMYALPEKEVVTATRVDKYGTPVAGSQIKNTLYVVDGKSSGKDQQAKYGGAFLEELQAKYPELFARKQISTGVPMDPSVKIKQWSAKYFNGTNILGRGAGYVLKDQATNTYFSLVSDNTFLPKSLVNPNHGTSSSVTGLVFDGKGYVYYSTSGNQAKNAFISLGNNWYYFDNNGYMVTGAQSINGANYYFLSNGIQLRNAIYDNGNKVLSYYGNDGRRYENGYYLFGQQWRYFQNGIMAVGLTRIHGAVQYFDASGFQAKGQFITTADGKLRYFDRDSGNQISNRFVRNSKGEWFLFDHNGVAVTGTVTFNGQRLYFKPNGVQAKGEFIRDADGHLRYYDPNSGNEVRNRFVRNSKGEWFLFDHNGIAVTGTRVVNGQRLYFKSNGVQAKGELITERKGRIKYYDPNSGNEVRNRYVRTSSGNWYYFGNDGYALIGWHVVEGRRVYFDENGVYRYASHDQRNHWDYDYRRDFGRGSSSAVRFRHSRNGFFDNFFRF

SMILES: NC(=O)c1cc(OCCOCCOCCOCCO)ccc1NC(=O)c1cc2cc([N+](=O)[O-])ccc2s1 [G43-C3-TEG]
- IC50 (GTF-C): 23.5 µM
- % reduction of Vmax (GTF-B): 39 % reduction of Vmax
